Reference: the NIST ThermoML archive (doi:10.1016/j.jct.2019.05.002)

Assay: xn = mol fraction of the nth substance listed
Details: 100 kPa, Liquid; for speed of sound: Frequency=3 MHz, Single path-length method; for mass density: Vibrating tube method

CCC(O)CO (stereo not given) [1,2-butanediol] + CCCC(=O)OCC
Details | mass density [kg/m3] | speed of sound [m/s]
298.15 K, x2 = 0 | 998.56 | 1452.5
298.15 K, x2 = 0.1011 | 986 | 1424.2
298.15 K, x2 = 0.2032 | 973.31 | 1395.5
298.15 K, x2 = 0.3034 | 960.87 | 1367.4
298.15 K, x2 = 0.4004 | 948.81 | 1340.2
298.15 K, x2 = 0.5064 | 935.64 | 1310.5
298.15 K, x2 = 0.6021 | 923.76 | 1283.6
298.15 K, x2 = 0.7043 | 911.06 | 1254.9
298.15 K, x2 = 0.8009 | 899.06 | 1227.9
298.15 K, x2 = 0.9012 | 886.59 | 1199.7
303.15 K, x2 = 0 | 994.75 | 1437.9
303.15 K, x2 = 0.1011 | 982.02 | 1408.9
303.15 K, x2 = 0.2032 | 969.16 | 1379.6
303.15 K, x2 = 0.3034 | 956.55 | 1350.9
303.15 K, x2 = 0.4004 | 944.33 | 1323
303.15 K, x2 = 0.5064 | 930.98 | 1292.6
303.15 K, x2 = 0.6021 | 918.93 | 1265.2
303.15 K, x2 = 0.7043 | 906.06 | 1235.8
303.15 K, x2 = 0.8009 | 893.9 | 1208.1
303.15 K, x2 = 0.9012 | 881.27 | 1179.3
308.15 K, x2 = 0 | 990.92 | 1423.3
308.15 K, x2 = 0.1011 | 978.03 | 1393.7
308.15 K, x2 = 0.2032 | 965.01 | 1363.7
308.15 K, x2 = 0.3034 | 952.23 | 1334.3
308.15 K, x2 = 0.4004 | 939.86 | 1305.9
308.15 K, x2 = 0.5064 | 926.34 | 1274.8
308.15 K, x2 = 0.6021 | 914.14 | 1246.7
308.15 K, x2 = 0.7043 | 901.11 | 1216.7
308.15 K, x2 = 0.8009 | 888.79 | 1188.4
308.15 K, x2 = 0.9012 | 876 | 1159
313.15 K, x2 = 0 | 987.11 | 1408.7
313.15 K, x2 = 0.1011 | 974.05 | 1378.4
313.15 K, x2 = 0.2032 | 960.87 | 1347.8
313.15 K, x2 = 0.3034 | 947.93 | 1317.8
313.15 K, x2 = 0.4004 | 935.41 | 1288.7
313.15 K, x2 = 0.5064 | 921.72 | 1256.9
313.15 K, x2 = 0.6021 | 909.36 | 1228.3
313.15 K, x2 = 0.7043 | 896.16 | 1197.6
313.15 K, x2 = 0.8009 | 883.69 | 1168.7
313.15 K, x2 = 0.9012 | 870.74 | 1138.6
318.15 K, x2 = 0 | 983.28 | 1394.1
318.15 K, x2 = 0.1011 | 970.05 | 1363.2
318.15 K, x2 = 0.2032 | 956.7 | 1331.9
318.15 K, x2 = 0.3034 | 943.59 | 1301.2
318.15 K, x2 = 0.4004 | 930.9 | 1271.5
318.15 K, x2 = 0.5064 | 917.03 | 1239.1
318.15 K, x2 = 0.6021 | 904.51 | 1209.8
318.15 K, x2 = 0.7043 | 891.14 | 1178.5
318.15 K, x2 = 0.8009 | 878.51 | 1148.9
318.15 K, x2 = 0.9012 | 865.39 | 1118.2
323.15 K, x2 = 0 | 979.46 | 1379.5
323.15 K, x2 = 0.1011 | 966.07 | 1347.9
323.15 K, x2 = 0.2032 | 952.55 | 1316
323.15 K, x2 = 0.3034 | 939.28 | 1284.7
323.15 K, x2 = 0.4004 | 926.44 | 1254.4
323.15 K, x2 = 0.5064 | 912.4 | 1221.3
323.15 K, x2 = 0.6021 | 899.72 | 1191.4
323.15 K, x2 = 0.7043 | 886.19 | 1159.4
323.15 K, x2 = 0.8009 | 873.4 | 1129.2
323.15 K, x2 = 0.9012 | 860.11 | 1097.9

CC(O)CCO (stereo not given) [1,3-butanediol] + CCCC(=O)OCC
Details | mass density [kg/m3] | speed of sound [m/s]
298.15 K, x2 = 0 | 1001.87 | 1527.9
298.15 K, x2 = 0.1034 | 988.68 | 1491.1
298.15 K, x2 = 0.203 | 975.97 | 1455.7
298.15 K, x2 = 0.305 | 962.97 | 1419.4
298.15 K, x2 = 0.3835 | 952.95 | 1391.4
298.15 K, x2 = 0.4936 | 938.91 | 1352.2
298.15 K, x2 = 0.5811 | 927.76 | 1321.1
298.15 K, x2 = 0.6878 | 914.14 | 1283.1
298.15 K, x2 = 0.7997 | 899.87 | 1243.3
298.15 K, x2 = 0.8818 | 889.39 | 1214.1
303.15 K, x2 = 0 | 998.41 | 1514
303.15 K, x2 = 0.1034 | 985.01 | 1476.5
303.15 K, x2 = 0.203 | 972.1 | 1440.3
303.15 K, x2 = 0.305 | 958.89 | 1403.3
303.15 K, x2 = 0.3835 | 948.71 | 1374.8
303.15 K, x2 = 0.4936 | 934.45 | 1334.8
303.15 K, x2 = 0.5811 | 923.12 | 1303.1
303.15 K, x2 = 0.6878 | 909.28 | 1264.3
303.15 K, x2 = 0.7997 | 894.79 | 1223.7
303.15 K, x2 = 0.8818 | 884.14 | 1193.9
308.15 K, x2 = 0 | 994.94 | 1500.1
308.15 K, x2 = 0.1034 | 981.34 | 1461.9
308.15 K, x2 = 0.203 | 968.23 | 1425
308.15 K, x2 = 0.305 | 954.82 | 1387.2
308.15 K, x2 = 0.3835 | 944.49 | 1358.2
308.15 K, x2 = 0.4936 | 930.01 | 1317.4
308.15 K, x2 = 0.5811 | 918.51 | 1285.1
308.15 K, x2 = 0.6878 | 904.47 | 1245.5
308.15 K, x2 = 0.7997 | 889.75 | 1204.1
308.15 K, x2 = 0.8818 | 878.94 | 1173.7
313.15 K, x2 = 0 | 991.49 | 1486.2
313.15 K, x2 = 0.1034 | 977.69 | 1447.2
313.15 K, x2 = 0.203 | 964.38 | 1409.6
313.15 K, x2 = 0.305 | 950.77 | 1371.2
313.15 K, x2 = 0.3835 | 940.28 | 1341.5
313.15 K, x2 = 0.4936 | 925.59 | 1300
313.15 K, x2 = 0.5811 | 913.91 | 1267
313.15 K, x2 = 0.6878 | 899.66 | 1226.8
313.15 K, x2 = 0.7997 | 884.72 | 1184.6
313.15 K, x2 = 0.8818 | 873.76 | 1153.6
318.15 K, x2 = 0 | 988.02 | 1472.3
318.15 K, x2 = 0.1034 | 974.01 | 1432.6
318.15 K, x2 = 0.203 | 960.49 | 1394.3
318.15 K, x2 = 0.305 | 946.68 | 1355.1
318.15 K, x2 = 0.3835 | 936.03 | 1324.9
318.15 K, x2 = 0.4936 | 921.1 | 1282.6
318.15 K, x2 = 0.5811 | 909.25 | 1249
318.15 K, x2 = 0.6878 | 894.78 | 1208
318.15 K, x2 = 0.7997 | 879.61 | 1165
318.15 K, x2 = 0.8818 | 868.48 | 1133.4
323.15 K, x2 = 0 | 984.56 | 1458.4
323.15 K, x2 = 0.1034 | 970.34 | 1417.9
323.15 K, x2 = 0.203 | 956.63 | 1378.9
323.15 K, x2 = 0.305 | 942.62 | 1339
323.15 K, x2 = 0.3835 | 931.81 | 1308.3
323.15 K, x2 = 0.4936 | 916.67 | 1265.2
323.15 K, x2 = 0.5811 | 904.65 | 1231
323.15 K, x2 = 0.6878 | 889.97 | 1189.2
323.15 K, x2 = 0.7997 | 874.58 | 1145.4
323.15 K, x2 = 0.8818 | 863.28 | 1113.3
